Columns and labels:
[1] = biological target: Serine/threonine-protein kinase pim-1 (Homo sapiens) (UniProt P11309); experiment: Inhibition of human recombinant PIM1 at 40 nM in presence of ATP by radiometric assay relative to control
[2] = biological target: Tyrosine-protein kinase Lck (Homo sapiens) (UniProt P06239); experiment: Inhibition of human recombinant LCK at 15 nM related to control ULK1
[3] = biological target: Dual specificity mitogen-activated protein kinase kinase 1 (Homo sapiens) (UniProt Q02750); experiment: Inhibition of human recombinant MAP2K1 at 15 nM related to control ULK1
Chain of Dual specificity mitogen-activated protein kinase kinase 1 (Homo sapiens) (Q02750 whole entry): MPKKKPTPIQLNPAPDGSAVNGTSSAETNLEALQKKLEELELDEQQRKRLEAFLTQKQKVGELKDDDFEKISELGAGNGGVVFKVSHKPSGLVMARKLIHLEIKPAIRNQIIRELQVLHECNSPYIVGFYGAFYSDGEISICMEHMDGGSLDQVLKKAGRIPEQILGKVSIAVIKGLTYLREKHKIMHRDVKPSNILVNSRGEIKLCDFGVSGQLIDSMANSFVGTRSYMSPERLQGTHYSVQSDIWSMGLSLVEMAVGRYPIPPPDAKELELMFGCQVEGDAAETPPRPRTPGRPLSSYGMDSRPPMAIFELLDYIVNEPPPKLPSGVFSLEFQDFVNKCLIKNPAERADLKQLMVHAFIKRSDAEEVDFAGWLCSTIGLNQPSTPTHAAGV

[4] = biological target: T1, Dual specificity tyrosine-phosphorylation-regulated kinase 2 (Homo sapiens) (UniProt Q92630); experiment: Inhibition of human recombinant DYRK2 at 15 nM related to control ULK1
T1 sequence (whole entry): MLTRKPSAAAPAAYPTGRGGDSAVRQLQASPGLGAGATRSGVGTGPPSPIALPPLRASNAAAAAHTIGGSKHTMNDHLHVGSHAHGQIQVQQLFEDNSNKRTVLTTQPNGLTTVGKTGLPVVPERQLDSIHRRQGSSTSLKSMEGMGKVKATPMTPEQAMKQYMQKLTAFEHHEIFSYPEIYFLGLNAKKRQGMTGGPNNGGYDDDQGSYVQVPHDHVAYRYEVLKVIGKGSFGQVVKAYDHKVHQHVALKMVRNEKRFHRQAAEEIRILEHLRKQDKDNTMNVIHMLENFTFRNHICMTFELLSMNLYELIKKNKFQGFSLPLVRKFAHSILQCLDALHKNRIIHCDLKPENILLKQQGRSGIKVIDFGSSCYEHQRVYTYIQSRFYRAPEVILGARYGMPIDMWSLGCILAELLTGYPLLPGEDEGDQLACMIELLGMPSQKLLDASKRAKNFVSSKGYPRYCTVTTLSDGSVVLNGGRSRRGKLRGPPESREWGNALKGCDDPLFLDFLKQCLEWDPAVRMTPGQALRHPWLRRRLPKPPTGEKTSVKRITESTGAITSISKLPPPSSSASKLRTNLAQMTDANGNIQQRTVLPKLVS

[5] = biological target: Hepatocyte growth factor receptor MET (Homo sapiens) (UniProt P08581); experiment: Inhibition of human recombinant MET at 15 nM in presence of ATP by radiometric assay relative to control
Chain of Hepatocyte growth factor receptor MET (Homo sapiens) (P08581 whole entry, looked up): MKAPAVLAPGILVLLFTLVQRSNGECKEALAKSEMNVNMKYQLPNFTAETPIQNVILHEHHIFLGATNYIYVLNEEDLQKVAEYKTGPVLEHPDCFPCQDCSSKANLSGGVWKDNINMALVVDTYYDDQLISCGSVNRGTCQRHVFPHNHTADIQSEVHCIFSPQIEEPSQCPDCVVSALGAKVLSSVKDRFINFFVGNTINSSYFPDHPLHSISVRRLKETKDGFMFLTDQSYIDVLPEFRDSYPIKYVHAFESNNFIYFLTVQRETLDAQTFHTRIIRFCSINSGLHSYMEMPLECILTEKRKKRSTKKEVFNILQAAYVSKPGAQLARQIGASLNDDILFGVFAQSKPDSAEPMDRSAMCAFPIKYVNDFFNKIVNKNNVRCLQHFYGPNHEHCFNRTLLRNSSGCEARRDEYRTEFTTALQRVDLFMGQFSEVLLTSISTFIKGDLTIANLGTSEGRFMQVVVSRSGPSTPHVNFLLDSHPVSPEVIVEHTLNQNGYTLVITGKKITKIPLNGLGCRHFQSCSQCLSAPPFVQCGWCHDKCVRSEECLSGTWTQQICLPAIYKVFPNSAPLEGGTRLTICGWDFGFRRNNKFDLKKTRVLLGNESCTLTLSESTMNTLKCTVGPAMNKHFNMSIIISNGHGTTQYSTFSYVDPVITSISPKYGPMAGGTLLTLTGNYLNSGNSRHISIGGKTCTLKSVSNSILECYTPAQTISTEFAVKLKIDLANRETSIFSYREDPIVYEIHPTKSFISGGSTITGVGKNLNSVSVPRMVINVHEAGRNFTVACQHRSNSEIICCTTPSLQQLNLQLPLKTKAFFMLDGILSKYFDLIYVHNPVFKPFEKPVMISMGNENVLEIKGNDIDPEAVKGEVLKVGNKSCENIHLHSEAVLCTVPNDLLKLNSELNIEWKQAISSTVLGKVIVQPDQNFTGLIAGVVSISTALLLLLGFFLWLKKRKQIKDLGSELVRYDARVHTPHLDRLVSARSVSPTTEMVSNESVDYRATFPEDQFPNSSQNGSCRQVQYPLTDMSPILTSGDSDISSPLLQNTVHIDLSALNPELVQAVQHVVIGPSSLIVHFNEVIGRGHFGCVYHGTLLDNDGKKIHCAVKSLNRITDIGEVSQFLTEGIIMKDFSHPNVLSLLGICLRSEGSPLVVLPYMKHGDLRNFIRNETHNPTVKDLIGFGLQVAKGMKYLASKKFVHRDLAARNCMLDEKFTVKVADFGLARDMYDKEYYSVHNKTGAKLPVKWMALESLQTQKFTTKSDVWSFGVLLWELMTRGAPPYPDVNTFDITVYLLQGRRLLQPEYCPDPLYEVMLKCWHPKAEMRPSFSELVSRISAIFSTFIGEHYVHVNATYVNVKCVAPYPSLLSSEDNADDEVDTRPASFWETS

[6] = biological target: T2, Serine/threonine-protein kinase 17A (Homo sapiens) (UniProt Q9UEE5); experiment: Inhibition of human recombinant DRAK1 at 500 nM related to control ULK1
T2 sequence (whole entry): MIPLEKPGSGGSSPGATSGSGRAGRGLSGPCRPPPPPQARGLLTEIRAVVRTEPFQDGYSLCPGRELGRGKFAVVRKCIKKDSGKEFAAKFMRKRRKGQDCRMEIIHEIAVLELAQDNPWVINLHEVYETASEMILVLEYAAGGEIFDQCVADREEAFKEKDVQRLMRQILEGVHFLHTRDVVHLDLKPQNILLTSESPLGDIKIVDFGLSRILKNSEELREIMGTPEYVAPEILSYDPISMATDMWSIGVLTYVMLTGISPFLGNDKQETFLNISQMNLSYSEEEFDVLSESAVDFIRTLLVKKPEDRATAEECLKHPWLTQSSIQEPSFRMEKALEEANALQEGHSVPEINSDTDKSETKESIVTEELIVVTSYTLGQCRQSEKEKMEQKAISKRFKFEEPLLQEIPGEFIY

[7] = biological target: Serine/threonine-protein kinase 32B (Homo sapiens) (UniProt Q9NY57); experiment: Inhibition of human recombinant YANK2 at 500 nM in presence of ATP by radiometric assay relative to control
Chain of Serine/threonine-protein kinase 32B (Homo sapiens) (Q9NY57 whole entry): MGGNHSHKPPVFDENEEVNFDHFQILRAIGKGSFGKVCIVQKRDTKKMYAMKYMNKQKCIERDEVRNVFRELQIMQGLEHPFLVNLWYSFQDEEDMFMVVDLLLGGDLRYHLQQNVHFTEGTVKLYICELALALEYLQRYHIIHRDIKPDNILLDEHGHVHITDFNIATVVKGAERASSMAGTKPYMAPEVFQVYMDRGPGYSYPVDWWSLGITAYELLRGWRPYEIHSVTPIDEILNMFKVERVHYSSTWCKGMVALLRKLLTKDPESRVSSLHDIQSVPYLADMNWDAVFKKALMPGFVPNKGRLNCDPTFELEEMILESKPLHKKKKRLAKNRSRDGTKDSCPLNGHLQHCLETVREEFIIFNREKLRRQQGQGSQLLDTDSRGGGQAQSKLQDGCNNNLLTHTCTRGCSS

[8] = biological target: T1, Dual specificity tyrosine-phosphorylation-regulated kinase 2 (Homo sapiens); experiment: Inhibition of human recombinant DYRK2 at 500 nM related to control ULK1
[9] = biological target: T3, Serine/threonine-protein kinase DCLK2 (Homo sapiens) (UniProt Q8N568); experiment: Inhibition of human recombinant DCAMKL2 at 500 nM related to control ULK1
T3 sequence (whole entry): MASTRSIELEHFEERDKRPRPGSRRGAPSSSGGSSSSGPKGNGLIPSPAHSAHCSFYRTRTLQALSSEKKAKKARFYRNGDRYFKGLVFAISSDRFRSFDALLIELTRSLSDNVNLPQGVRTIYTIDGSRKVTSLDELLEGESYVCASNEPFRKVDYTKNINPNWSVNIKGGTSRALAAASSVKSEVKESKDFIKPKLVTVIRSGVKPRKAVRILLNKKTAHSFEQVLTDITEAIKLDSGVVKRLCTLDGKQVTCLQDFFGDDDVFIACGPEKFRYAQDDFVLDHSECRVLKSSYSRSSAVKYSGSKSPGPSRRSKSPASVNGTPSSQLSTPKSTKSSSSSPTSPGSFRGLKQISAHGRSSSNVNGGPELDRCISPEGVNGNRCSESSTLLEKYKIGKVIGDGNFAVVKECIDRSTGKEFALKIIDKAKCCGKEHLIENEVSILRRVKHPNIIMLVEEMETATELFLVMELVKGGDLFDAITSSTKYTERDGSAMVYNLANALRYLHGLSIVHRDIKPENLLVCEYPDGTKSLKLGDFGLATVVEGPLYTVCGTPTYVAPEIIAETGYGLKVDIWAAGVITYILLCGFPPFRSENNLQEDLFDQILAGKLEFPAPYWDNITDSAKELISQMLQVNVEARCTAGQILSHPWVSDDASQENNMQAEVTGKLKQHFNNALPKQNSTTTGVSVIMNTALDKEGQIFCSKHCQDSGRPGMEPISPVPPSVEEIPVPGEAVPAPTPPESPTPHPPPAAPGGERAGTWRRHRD

Chain of Tyrosine-protein kinase Lck (Homo sapiens) (P06239 2-509 limits assumed): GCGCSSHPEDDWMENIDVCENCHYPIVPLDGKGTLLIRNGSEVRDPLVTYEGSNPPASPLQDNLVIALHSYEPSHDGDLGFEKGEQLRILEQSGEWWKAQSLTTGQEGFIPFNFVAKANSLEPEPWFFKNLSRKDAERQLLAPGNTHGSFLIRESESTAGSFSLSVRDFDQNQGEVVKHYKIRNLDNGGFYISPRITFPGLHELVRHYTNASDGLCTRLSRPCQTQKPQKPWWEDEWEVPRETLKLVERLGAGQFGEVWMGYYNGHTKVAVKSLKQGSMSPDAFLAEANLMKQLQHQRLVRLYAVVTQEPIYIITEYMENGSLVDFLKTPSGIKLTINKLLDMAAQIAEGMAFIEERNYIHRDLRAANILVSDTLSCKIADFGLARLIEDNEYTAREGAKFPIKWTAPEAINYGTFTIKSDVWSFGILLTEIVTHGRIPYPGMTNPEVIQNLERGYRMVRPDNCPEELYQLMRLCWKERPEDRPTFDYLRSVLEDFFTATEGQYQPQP
Chain of Serine/threonine-protein kinase pim-1 (Homo sapiens) (P11309 whole entry, looked up): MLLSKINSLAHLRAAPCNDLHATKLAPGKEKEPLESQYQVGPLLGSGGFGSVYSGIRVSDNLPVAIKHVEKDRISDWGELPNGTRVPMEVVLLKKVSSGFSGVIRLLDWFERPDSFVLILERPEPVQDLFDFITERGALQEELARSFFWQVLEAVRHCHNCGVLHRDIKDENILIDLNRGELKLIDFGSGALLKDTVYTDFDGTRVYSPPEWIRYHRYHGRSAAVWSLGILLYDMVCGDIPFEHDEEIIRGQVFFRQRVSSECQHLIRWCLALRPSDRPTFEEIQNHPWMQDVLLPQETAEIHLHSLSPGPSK

O=C(N[C@@H](C1CC1)C(F)(F)F)c1cc(-c2cnn3cc(-c4ccc(F)cc4)cnc23)cs1
inhibition [1]: 5%

CC(C)[C@H](NC(=O)c1cc(-c2cnn3cc(-c4ccc(OCCN5CCCCC5)cc4)cnc23)cs1)C(F)(F)F
fold change (FC) [2]: 0.13
fold change (FC) [3]: 0.08
fold change (FC) [4]: 0.09
inhibition [5]: 0%

CNC(=O)c1ccccc1Oc1nc(Nc2cc(OC)c(OC)c(OC)c2)ncc1Br
fold change (FC) [6]: 0
inhibition [7]: 2%
fold change (FC) [8]: 0
fold change (FC) [9]: 0

Reference: ChEMBL document CHEMBL5653631, “A Potent and Selective ULK1 Inhibitor Suppresses Autophagy and Sensitizes Cancer Cells to Nutrient Stress” (iScience, 2018)
